Test results: article PMC12502564, “Evaluation of LLM-generated peptide as foundation template for discovery of effective encrypted AMPs against clinical superbugs” (Microbiology Spectrum, 2025)
Where two headings read alike, the source gives them in different places. No end group written: not given here.

Experiments:
MRSA = assay: Time-kill curve; type: cell-based, methicillin-resistant Staphylococcus aureus; conditions: ~10^5 CFU mL^−1 in MH broth
Description: (§1) Bacteria in the logarithmic growth phase were diluted to approximately 10^5 CFU mL^−1 in MH broth and treated with peptides, polymyxin B, or vancomycin at final concentrations of 1/2 × MIC, 1 × MIC, 2 × MIC, and 4 × MIC. After the addition of the test compound, samples were taken at 0, 3, 6, 9, 12, and 24 h and serially diluted. Subsequently, 5 µL of the diluted samples were spread on agar plates and incubated at 37°C for 20 h. The bacterial concentration CFU mL^−1 at the corresponding time point of each sample was calculated based on the number of colonies on the agar plate, and the log10 (CFU mL^−1) was plotted against time (h).

CRAB 2210186 [1] = type: cell-based, carbapenem-resistant Acinetobacter baumannii
Description: (§2) The MIC of all peptides was determined using the microdilution broth method in a 96-well plate. Peptides were dissolved in the DMSO with an initial concentration of 12,800 µg mL^−1. And cells of eight strains were separately suspended in the MHB at a density of approximately 10^5 CFU mL^−1. In the first column of the 96-well plate, 16 µL of peptide and 184 µL of MHB were added to each well to achieve a final concentration of 1,024 µg mL^−1. One-hundred microliters of MHB was added to each of the remaining wells. Then the first column of liquid was mixed well and diluted to the 12th column using the twofold dilution method. One-hundred microliters of prepared bacterial solution was added to all wells, and the 96-well plate was incubated at 37°C for 18–24 h. The MIC was defined as the concentration of the peptide in the well just preceding the first well showing visible turbidity. All experiments were performed in triplicate to ensure reliability.

MRSA 2210187 = type: cell-based, methicillin-resistant Staphylococcus aureus
Description: as §2

[2] = test system: all eight bacterial strains; type: cell-based, gram-positive and gram-negative bacteria
Description: as §2

S. aureus ATCC25923 = type: cell-based, Staphylococcus aureus
Description: as §2

A. baumannii ATCC19606 = type: cell-based, Acinetobacter baumannii
Description: as §2

CRPA 2403282 = type: cell-based, carbapenem-resistant P. aeruginosa
Description: as §2

CRKP 2403276 = type: cell-based, carbapenem-resistant K. pneumoniae
Description: as §2

E. coli ATCC25922 = type: cell-based, Escherichia coli
Description: as §2

[3] = design: method as in earlier work; conditions: cited from earlier work
CRAB [4] = test system: CRAB; design: method as in earlier work; conditions: in vitro; cited from earlier work
Source text: Using this validated AMP as a template, we performed sequence alignment with the National Center for Biotechnology Information (NCBI) database to identify encrypted AMPs.

CRAB 2210186 [5] = assay: Thigh infection mouse model; type: in vivo, BALB/c mice; conditions: neutropenic mice, ~1 × 10^6 CFU in thigh, i.p. at 1, 3, 5, 7 h post-infection (PL-15 10 × MIC, 100 µL; polymyxin B 20,000–25,000 U kg^−1 day^−1), n = 8
Source text: The WHO has classified CRAB as a “Critical Priority” pathogen in its Priority Pathogens List, recognizing it as a predominant causative agent of hospital-acquired infections ([2]). This classification reflects CRAB’s global dissemination, high mortality rates, and extreme resistance profiles. Given this critical situation, a thigh infection model was employed to evaluate the in vivo therapeutic efficacy of PL-15 against CRAB. To establish the mouse thigh infection model, mice were pre-treated intraperitoneally with cyclophosphamide 4 days and 1 day prior to bacterial inoculation to induce neutropenia, administered at doses of 150 mg kg^−1 and 100 mg kg^−1, respectively ([51]). Each mouse was then injected with approximately 10^6 colony-forming unit (CFU) of CRAB in the thigh tissue, followed by four intraperitoneal injections of PL-15, polymyxin B, or phosphate-buffered saline (PBS) within 24 h of infection (Fig. 3a).
All animal experiments were performed according to the “Principles of Laboratory Animal Care” (NIH publication No. 86-23, revised 1985) and approved by the Animal Care and Use Committee of Shandong University (LL20240622, Jinan, China). Five-week-old male BALB/c mice were purchased from Beijing Vital River Laboratory Animal Technology Co., Ltd. (Beijing, China) and kept under a 12-hour light/12-hour dark cycle, humidity of 50%, and temperature of 22°C in standard specific pathogen-free individually vented cages.
To establish the mouse thigh infection model, mice were injected intraperitoneally with cyclophosphamide 4 d and 1 d before bacterial administration, at concentrations of 150 and 100 mg kg^−1, respectively, to induce neutropenia ([51]). CRAB 2210186 cells were suspended in sterile PBS, adjusted to a concentration of ~1 × 10^6 CFU per infection site and injected into the right thighs of eight mice per treatment group. PL-15 (10 × MIC, 100 µL), polymyxin B (20,000–25,000 U kg^−1 day^−1) or PBS were administered intraperitoneally at 1, 3, 5, and 7 h post-infection. Mice were euthanized 24 h after infection, and the thigh tissues were aseptically collected, weighed, homogenized, serially diluted in PBS, and plated onto solid MCA. The CFU of CRAB 2210186 per thigh was calculated by plating dilutions of the thigh homogenates (0.25 g of thigh tissue in 10 mL sterile PBS) on agar plates and counting colonies.

CRAB [6] = assay: Time-kill curve; type: cell-based, carbapenem-resistant Acinetobacter baumannii; conditions: ~10^5 CFU mL^−1 in MH broth
Description: as §1

CRAB [7] = assay: Biofilm formation inhibition assay (crystal violet); type: cell-based, carbapenem-resistant Acinetobacter baumannii; conditions: 1/2 × MIC, 24 h, OD570
Description: The crystal violet staining method ([66]) was used to determine the inhibitory activity of the compounds against the biofilm formation of CRAB. The steps were as follows: prepare a bacterial solution (10^6 CFU mL^−1), mix it with different final concentrations of the compound (1/2 × MIC, 1 × MIC, 2 × MIC, and 4 × MIC), and culture it for 24 h. After discarding the supernatant, wash with PBS, add anhydrous methanol to fix the biofilm, and then stain it with crystal violet for 60 min after drying. After washing, dissolve the biofilm with 33% glacial acetic acid, and measure OD570. Three parallel experiments were performed, and the biofilm formation inhibition rate was calculated by the following formula:
(3) Biofilm formation inhibition rate (%)=(1−OD(sample)− OD(blank)/OD(negative)− OD(blank))×100%

CRAB [8] = assay: PI assay, cytoplasmic membrane integrity; type: cell-based, carbapenem-resistant Acinetobacter baumannii; conditions: 10 × MIC, 10^8 CFU mL^−1
Description: PI (which is known to stain nuclear chromatin upon cell membrane disruption) assay was carried out to evaluate the ability of AMPs to disrupt the cytoplasmic membrane integrity ([63]). After CRAB was grown to the exponential phase, bacteria cells were harvested and washed three times in washing buffer of 5 mM glucose and 5 mM HEPES (1:1, pH = 7.2) and then re-adjusted to 10^8 CFU mL^−1 in the same buffer. Bacterial suspensions (150 µL/well) were loaded into black-walled, clear-bottom 96-well plates with lids. Following bacterial loading, 50 µL of 10 µM PI was introduced into each well, with 30 min pre-incubation CRAB. Post-incubation fluorescence signals were acquired using 535 nm excitation and 617 nm emission wavelengths. Compounds (10 µL) were then administered to achieve 1 × MIC/10 × MIC-equivalent final concentrations in the dye-loaded bacterial suspensions. Real-time fluorescence monitoring was performed with continuous acquisition during the first 10 min, followed by measurements at 10-min intervals. Negative controls received 10 µL sterile water in lieu of antimicrobial peptides while maintaining equivalent pre-incubation conditions. All experimental conditions were executed with three biological replicates.

CRAB [9] = assay: Drug resistance assay, 20 passages; type: cell-based, carbapenem-resistant Acinetobacter baumannii; conditions: 20 passages at 0.5-fold MIC, n = 3
Description: Resistance development assays were performed following previous report ([43]). CRAB was cultured overnight at 37°C at 160 rpm in LB. In wells of a 96-well polypropylene flat-bottom plate, 5 µL of the overnight bacterial culture (10^7 CFU mL^−1) was added to 100 µL of peptides/antibiotic solutions (with final concentrations of 0.25 to 512 µg mL^−1) in MHB. Plates were incubated for 18 to 20 h at 37°C. The MIC, the lowest concentration of peptides/antibiotic that caused lack of visible bacterial growth, was determined for each bacterial species. Thereafter, 5 µL of the growth at the 0.5-fold MIC suspension (10^7 CFU mL^−1) was added to a fresh medium containing peptides/antibiotic, and these mixtures were incubated as described above. This was repeated for 20 passages. All experiments were performed in triplicate to ensure reliability.

[10] = MHB, ~10^5 CFU mL^−1, 37°C, 18–24 h, triplicate

Question: For `CN[C@H](CC(C)C)C(=O)N[C@H]1C(=O)N[C@@H](CC(N)=O)C(=O)N[C@H]2C(=O)N[C@H]3C(=O)N[C@H](C(=O)N[C@H](C(=O)O)c4cc(O)cc(O)c4-c4cc3ccc4O)[C@H](O)c3ccc(c(Cl)c3)Oc3cc2cc(c3O[C@@H]2O[C@H](CO)[C@@H](O)[C@H](O)[C@H]2O[C@H]2C[C@](C)(N)[C@H](O)[C@H](C)O2)Oc2ccc(cc2Cl)[C@H]1O` [vancomycin, reference compound], which “time to complete bacterial eradication of MRSA” value (MRSA; 1 × MIC) is on record?
Answer: The value was no more than 6 h.

Question: What about the “time to full bacterial killing of MRSA” value (MRSA; 2 × MIC) of the same compound?
Answer: The value was no more than 3 h.

Question: What about the “time to full bacterial killing of MRSA” value (MRSA; 4 × MIC) of the same compound?
Answer: Its value is no more than 3 h.

Question: Which MIC (CRAB 2210186 [1]) does the source give for GIGKFLKKAKKFGKAFVKILKK-NH2 [pexiganan] here?
Answer: Its MIC is “below 8 µg mL^−1”.

Question: What about the MIC (MRSA 2210187; [10]) of the same compound?
Answer: Its MIC is “below 8 µg mL^−1”.

Question: For GIWKTIKSMGKVFAGKILQNL-NH2 [[D4K]B2RP], which MIC (CRAB 2210186 [1]) is on record?
Answer: The MIC was “below 8 µg mL^−1”.

Question: And the MIC (MRSA 2210187; 2210187)?
Answer: Its MIC is “below 8 µg mL^−1”.

Question: Which results are given for GLGSLLGKAFKIGLKTVGKMMGGAPREQ [CPF-B1]?
Answer: MIC (CRAB 2210186 [1]; [10]): below 8 µg mL^−1; MIC (MRSA 2210187; [10]): below 8 µg mL^−1

Question: Which MIC (CRAB 2210186 [1]) does the source give for GLLKPLLKIAAKVGSNLL-NH2 [[G4K]XT-7] here?
Answer: The MIC was “below 8 µg mL^−1”.

Question: And the MIC (MRSA 2210187; 2210187)?
Answer: The MIC was “below 8 µg mL^−1”.

Question: With GVIKSVLKGVAKTVALGML-NH2 [B2RP-Era] as the compound, how does the MIC (CRAB 2210186 [1]) read?
Answer: The MIC was “below 8 µg mL^−1”.

Question: What about the MIC (MRSA 2210187; 2210187) of the same compound?
Answer: Its MIC is “below 8 µg mL^−1”.

Question: For “ILGKLLKTAAKLLSNL [[S7K,G11K]alyteserin-2a]”, which MIC (CRAB 2210186 [1]; [10]) is on record?
Answer: Its MIC is “below 8 µg mL^−1”.

Question: And the MIC (MRSA 2210187; 2210187)?
Answer: The MIC was “below 8 µg mL^−1”.

Question: For “LKLSPKTKDTLKKVLKGAIKGAIAIASMA-NH2 [hymenochirin-1Pa]”, which MIC (CRAB 2210186 [1]) is on record?
Answer: The MIC was “below 8 µg mL^−1”.

Question: And the MIC (MRSA 2210187; 2210187)?
Answer: The MIC was “below 8 µg mL^−1”.

Question: What does the source list for WLKKILAWLKKKW [BR-13]?
Answer: MIC for all tested bacteria [2]: ≤ 64 µg/mL; antimicrobial spectrum ([2]; judged from MICs on eight strains): broad-spectrum antimicrobial properties; MIC (S. aureus ATCC25923): lower than 11 µg mL^−1; MIC (CRAB 2210186 [1]): 18.67 µg/mL; MIC (A. baumannii ATCC19606): lower than 11 µg mL^−1; MIC (MRSA 2210187; 2210187): 3.33 µg/mL; MIC (CRPA 2403282): 64 µg/mL; MIC (CRKP 2403276): lower than 11 µg mL^−1; MIC (E. coli ATCC25922): lower than 11 µg mL^−1

Question: For “WLKKILKWLKW [g_AMP41, short peptide … generated by AMPGenix, used as template]”, which “efficacy in treating infections in vivo” value [3] is on record?
Answer: Its value is “suboptimal efficacy”.

Question: And the MIC (CRAB [4])?
Answer: The MIC was 8 µg/mL.

Question: Which “reduction of bacterial load compared to the PBS control group” value (CRAB 2210186 [5]; 24 h) does the source give for polymyxin B [reference compound] here?
Answer: Its value is “two orders of magnitude”.

Question: And the “bacteria eradicated in the thigh tissue within 24 h” value (CRAB 2210186 [5])?
Answer: The value was “over 97%”.

Question: What about the “time to complete bacterial eradication of CRAB” value (CRAB [6]; 2 × MIC) of the same compound?
Answer: The value was 6 h.

Question: And the “time to kill CRAB” value (CRAB [6]; 4 × MIC)?
Answer: Its value is no more than 3 h.

Question: And the biofilm formation inhibition (CRAB [7])?
Answer: Its biofilm formation inhibition is “moderate biofilm inhibition”.

Question: And the “PI fluorescence (cytoplasmic membrane integrity)” value (CRAB [8])?
Answer: The value was “strongest fluorescence response”.

Question: What about the “MIC change after serial passaging” value (CRAB [9]) of the same compound?
Answer: The value was 64 fold.
